Data taken from US7459581B2, “Anti-bacterial compounds” (Givaudan S.A., priority 2004, dated 2008).

Tests used:
[1] = tested on: C. xerosis DSM 20170; test: Bactericidal activity (MBC), 60 min contact; assay type: cell-based, Corynebacterium xerosis; settings: complete kill of inoculum after 60 min incubation; regrowth read after 24 h at 36° C.
From the text: (§1) The different axilla bacteria are isolated from the human axilla according to techniques known in the art, in particular according to standard microbiological practice. They are taxonomically identified by cell morphology, gram-reaction and biochemical tests included in the Api coryne test kit (BioMerieux, France). Strain Staphylococcus epidermidis Ax25 is identified by fatty acid methyl ester analysis (FAME; German type strain collection DSMZ, Germany). Escherichia coli DSM 682, Staphylococcus aureus DSM 799, and Corynebacterium xerosis DSM 20170 are obtained from the German-type strain collection.
(§2) The strains are maintained on Tryptic soy broth plates, this standard medium being supplemented with 5 g per litre of Polyoxyethylene Sorbitan Monooleate (Tween™ 80). Plates are incubated at 36° C. for a period 48 hours. The bacteria are then swabbed from the plates and suspended in 4 ml of Müller-Hinton broth supplemented with 100 mg of Tween™ 80 per litre (MH-Tween™) and incubated again at 36° C. for 16 hours. Following incubation, the bacterial suspensions are diluted in MH-Tween™ to obtain a final cell density of 10^7 colony forming units per ml. These diluted suspensions of the different test organisms are distributed to different columns of a microtiter plate, 100 μl per well. The test compounds are dissolved in dimethylsulfoxide (DMSO) at various test concentrations and 2.5 μl of these different DMSO solutions are added to the different wells of the test plates. The plates are covered with plastic films and incubated for 24 h at 36° C. with shaking at 250 rpm. The turbidity developing in the microtiter plates is then examined after 24 h to determine microbial growth. The minimal concentration of test compounds inhibiting the growth of an organism by at least 80% is determined as the minimal inhibitory concentration (MIC).
(§3) The bactericidal effects of the compounds of the present invention are further tested. The bacteria are grown, harvested and diluted under the same conditions as described in example 10 above and added to microtiter plates (100 μl per well), each well containing 2.5 μl of the different DMSO solutions as described above. After 60 min incubation, 0.5 μl of the bacterial culture from each well (corresponding to 5×10^3 cfu in the control treatment) is transferred to a fresh microtiter plate which contained 100 μl per well of fresh medium. The plates are covered with plastic films and incubated for 24 h at 36° C. with shaking at 250 rpm. The turbidity developing in the microtiter plates is then examined after 24 h to determine microbial growth. The minimal concentration of test compounds which completely killed the bacterial inoculum is determined as the minimal bactericidal concentration (MBC).

[2] = tested on: S. epidermidis Ax 25; test: Bactericidal activity (MBC), 60 min contact; assay type: cell-based, Staphylococcus epidermidis; settings: complete kill of inoculum after 60 min incubation; regrowth read after 24 h at 36° C.
From the text: as §1, §2, §3

[3] = tested on: Corynebacterium Ax 7; test: Bacteriostatic activity (MIC), microtiter turbidity; assay type: cell-based, Corynebacterium group G; settings: AX7, 24 h, read-out: MIC Corynebacterium Ax 7
From the text: (§4) The different axilla bacteria are isolated from the human axilla according to techniques known in the art, in particular according to standard microbiological practice. They are taxonomically identified by cell morphology, gram-reaction and biochemical tests included in the Api coryne test kit (BioMerieux, France). Strain Staphylococcus epidermidis Ax25 is identified by fatty acid methyl ester analysis (FAME; German type strain collection DSMZ, Germany).
as §2, with “growth.” for “growth. The minimal concentration of test compounds inhibiting the growth of an organism by at least 80% is determined as the minimal inhibitory concentration (MIC).”

[4] = tested on: Corynebacterium Ax 15; test: Bactericidal activity (MBC), 60 min contact; assay type: cell-based, Corynebacterium jeikeium; settings: complete kill of inoculum after 60 min incubation; regrowth read after 24 h at 36° C.
From the text: as §1, §2, §3

[5] = tested on: Corynebacterium Ax 15; test: Bacteriostatic activity (MIC), microtiter turbidity; assay type: cell-based, Corynebacterium jeikeium; settings: AX15, 24 h, read-out: MIC Corynebacterium Ax 15
From the text: as §4
as §2, with “growth.” for “growth. The minimal concentration of test compounds inhibiting the growth of an organism by at least 80% is determined as the minimal inhibitory concentration (MIC).”

[6] = tested on: Aspergillus niger; test: Antifungal (fungistatic) activity, MIC; assay type: cell-based; settings: growth inhibition by at least 80%, 48 h, Saboureaud liquid medium, 10^5 cfu per ml
Protocol: as §2
(§5) The fungistatic effects of the compounds of the present invention are tested against the standard strains Candida albicans and Aspergillus niger. The strains are maintained on Potato dextrose agar plates. Plates are incubated at 30° C. for a period of 72 hours. The fungal inoculum is then swabbed from the plates and suspended in Saboureaud liquid medium and incubated again at 30° C. for 24 hours in the case of C. albicans. For A. niger the inoculum containing the fungal spores is directly harvested from the agar plates and suspended in distilled water. The inoculum is then diluted in Saboureaud liquid medium to obtain a final cell density of 10^5 colony forming units per ml. The test for fungistatic activity using differently concentrated DMSO stock solutions in microtiter plates is then conducted as described in example 10 for the bacteriostatic activity. The turbidity developing in the microtiter plates is then examined after 48 h to determine fungal growth. The minimal concentration of test compounds inhibiting the growth of an organism by at least 80% is determined as the minimal inhibitory concentration (MIC).

[7] = tested on: Candida albicans; test: Antifungal (fungistatic) activity, MIC; assay type: cell-based; settings: growth inhibition by at least 80%, 48 h, Saboureaud liquid medium, 10^5 cfu per ml
Protocol: as §2, §5

[8] = tested on: Escherichia coli DSM 682; test: Bactericidal activity (MBC), 60 min contact; assay type: cell-based; settings: complete kill of inoculum after 60 min incubation; regrowth read after 24 h at 36° C.
From the text: as §1, §2, §3

[9] = tested on: Staphylococcus aureus DSM 799; test: Bactericidal activity (MBC), 60 min contact; assay type: cell-based; settings: complete kill of inoculum after 60 min incubation; regrowth read after 24 h at 36° C.
From the text: as §1, §2, §3

[10] = tested on: Escherichia coli DSM 682; test: Bacteriostatic activity (MIC), microtiter turbidity; assay type: cell-based; settings: DSM682, 24 h, read-out: MIC Escherichia coli DSM 682
From the text: as §4
as §2, with “growth.” for “growth. The minimal concentration of test compounds inhibiting the growth of an organism by at least 80% is determined as the minimal inhibitory concentration (MIC).”

[11] = tested on: Staphylococcus aureus DSM 799; test: as above; assay type: cell-based; settings: DSM799, 24 h, read-out: MIC Staphylococcus aureus DSM 799
From the text: as §4
as §2, with “growth.” for “growth. The minimal concentration of test compounds inhibiting the growth of an organism by at least 80% is determined as the minimal inhibitory concentration (MIC).”

[12] = tested on: C. xerosis DSM 20170; test: as above; assay type: cell-based; settings: Corynebacterium xerosis, DSM20170, 24 h, read-out: MIC C. xerosis DSM 20170
From the text: as §4
as §2, with “growth.” for “growth. The minimal concentration of test compounds inhibiting the growth of an organism by at least 80% is determined as the minimal inhibitory concentration (MIC).”

[13] = tested on: S. epidermidis Ax 25; test: as above; assay type: cell-based; settings: Staphylococcus epidermidis, AX25, 24 h, read-out: MIC S. epidermidis Ax 25
From the text: as §4
as §2, with “growth.” for “growth. The minimal concentration of test compounds inhibiting the growth of an organism by at least 80% is determined as the minimal inhibitory concentration (MIC).”

[14] = tested on: Corynebacterium Ax 7; test: Bactericidal activity (MBC), 60 min contact; assay type: cell-based, Corynebacterium group G; settings: complete kill of inoculum after 60 min incubation; regrowth read after 24 h at 36° C.
From the text: as §1, §2, §3

CCCCCCCCC(CCCCCC)COC(=O)CN (centres unmarked) [Compound 6., 2-Hexyl-decyloxycarbonylmethyl-ammonium chloride]
MBC C. xerosis DSM 20170 [1]: 0.002 % (weight/volume)
MBC S. epidermidis Ax 25 [2]: 0.002 % (weight/volume)
MIC [3]: 5 µg/mL
MBC Corynebacterium Ax 15 [4]: 0.0005 % (weight/volume)
MIC [5]: 5 µg/mL
MIC A. niger [6]: 0.002 % (weight/volume)
MIC C. albicans [7]: 0.0156 % (weight/volume)
MBC Escherichia coli DSM 682 [8]: 0.016 % (weight/volume)
MBC Staphylococcus aureus DSM 799 [9]: 0.004 % (weight/volume)
MIC [10]: 20 µg/mL
MIC [11]: 20 µg/mL
MIC [12]: 10 µg/mL
MIC [13]: 5 µg/mL
MBC Corynebacterium Ax 7 [14]: 0.0005 % (weight/volume)
